Test results published in patent publication US4194006A, “Therapeutic application of acetyl-d,l-carnitine and other acyl derivatives of d,l-carnitine” (priority 1977, dated 1980).
Where two headings read alike, the source gives them in different places.

Key:
in vivo = conditions: mouse, in vivo, iv
Text: The tolerance of acetyl-d,l-carnitine and of the other aforementioned acyl derivatives of the formula (I), as well as their salts were investigated by comparing the LD50 obtained by administering the compounds intravenously in mice with the LD50 obtained under the same experimental conditions by intravenous injection of d,l-carnitine.

isolated rabbit hearts [1] = test: cardiokinetic effect on isolated heart (Langendorff): contractile force after anoxia, positive inotropic effect; conditions: 10 minutes from interruption of anoxic period
Summary of the method: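 Rabbit hearts were perfused Langendorff-style with oxygenated Ringer at 38.2 °C. Anoxia was applied until contractile force dropped by 80%, then the hearts were reoxygenated with or without compound. Contractile force was expressed as a percentage 10 min after the anoxic period ended.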

isolated rabbit hearts [2] = test: coronary vasodilator effect: coronary flow, isolated heart (Langendorff)
Summary of the method: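 Langendorff-perfused isolated rabbit hearts in oxygenated Ringer at 38.2° C; anoxia imposed until contractile force fell by 80%, then reoxygenated with or without test compound. Coronary flow, isometric contraction and ECG recorded by polygraph.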

isolated rat atrium = test: antiarrhythmic effect, isolated rat atrium method of M. Libonati and G. Segre; conditions: Rattus norvegicus; for inhibition at 0.1 µg/mL / activation at 0.1 µg/mL: 1·10^-4 g/lt; for inhibition at 0.1 µg/mL / inhibition at 0.01 µg/mL / inhibition at 0.001 µg/mL: decrease; for activation at 0.1 µg/mL / activation at 0.01 µg/mL / activation at 0.001 µg/mL: increase; for inhibition at 0.01 µg/mL / activation at 0.01 µg/mL: 1·10^-5 g/lt; for inhibition at 0.001 µg/mL / activation at 0.001 µg/mL: 1·10^-6 g/lt
female rats = test: antifatigue effect: rota-rod; type: in vivo, rat; conditions: Rattus norvegicus, ip, 0.25 h, read-out: percentage of animals staying on the rota-rod more than 180 seconds; for responders at 300 mg/kg: 300 mg/kg i.p.; for responders at 400 mg/kg: 400 mg/kg i.p.; for responders at 600 mg/kg: 600 mg/kg i.p.
Summary of the method: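 Female rats dosed intraperitoneally in saline, with controls given saline alone. Every 15 min after treatment animals were placed on a 6 cm rod rotating at 16 r.p.m. Value is the percentage of animals staying on the rod for more than 180 s, per session.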

[3] = read-out: Mean percent variation versus controls: excitability (-%)
[4] = read-out: Mean percent variation versus controls: frequency max (-%)
[5] = read-out: Mean percent variation versus controls: refractory period (+%)
[6] = read-out: Mean percent variation versus controls: rheobase (+%)
[7] = session 6 (every 15 minutes), * p < 0.05

CCCCCCCCCCCCCCCCCC(=O)OC(CC(=O)[O-])C[N+](C)(C)C (racemic) [stearoyl-d,l-carnitine]
LD50 (in vivo): ~745 mg/kg | Contractile force, Mean ± S.E. (isolated rabbit hearts [1]; 1·10^-5 g/lt): 32.8 ± 3.01% | Contractile force, Mean ± S.E. (isolated rabbit hearts [1]; 1·10^-6 g/lt): 27.1 ± 3.18% | Contractile force, Mean ± S.E. (isolated rabbit hearts [1]; 5·10^-6 g/lt): 27.5 ± 4.09% | Coronary flow, Mean ± S.E. (isolated rabbit hearts [2]; 1·10^-5 g/lt): 81.05 ± 6.27% | Coronary flow, Mean ± S.E. (isolated rabbit hearts [2]; 1·10^-6 g/lt): 80.21 ± 8.78% | Coronary flow, Mean ± S.E. (isolated rabbit hearts [2]; 5·10^-6 g/lt): 77.30 ± 11.8% | inhibition at 0.1 µg/mL (isolated rat atrium; [3]): 12.3% | inhibition at 0.1 µg/mL (isolated rat atrium; [4]): 3.5% | activation at 0.1 µg/mL (isolated rat atrium; [5]): 24.6% | activation at 0.1 µg/mL (isolated rat atrium; [6]): 2.08% | inhibition at 0.01 µg/mL (isolated rat atrium; [3]): 0% | inhibition at 0.01 µg/mL (isolated rat atrium; [4]): 1.92% | activation at 0.01 µg/mL (isolated rat atrium; [5]): 16.2% | activation at 0.01 µg/mL (isolated rat atrium; [6]): 3.84% | inhibition at 0.001 µg/mL (isolated rat atrium; [3]): 0% | inhibition at 0.001 µg/mL (isolated rat atrium; [4]): 0% | activation at 0.001 µg/mL (isolated rat atrium; [5]): 15.6% | activation at 0.001 µg/mL (isolated rat atrium; [6]): 1.85% | responders at 300 mg/kg (female rats; session 1 (every 15 minutes)): 0% | responders at 300 mg/kg (female rats; session 2 (every 15 minutes)): 0% | responders at 300 mg/kg (female rats; session 3 (every 15 minutes)): 0% | responders at 300 mg/kg (female rats; session 4 (every 15 minutes)): 10% | responders at 300 mg/kg (female rats; session 5 (every 15 minutes)): 10% | responders at 300 mg/kg (female rats; session 6 (every 15 minutes)): 10% | responders at 400 mg/kg (female rats; session 1 (every 15 minutes)): 0% | responders at 400 mg/kg (female rats; session 2 (every 15 minutes)): 0% | responders at 400 mg/kg (female rats; session 3 (every 15 minutes)): 0% | responders at 400 mg/kg (female rats; session 4 (every 15 minutes)): 10% | responders at 400 mg/kg (female rats; session 5 (every 15 minutes)): 20% | responders at 400 mg/kg (female rats; [7]): 20% | responders at 600 mg/kg (female rats; session 1 (every 15 minutes)): 0% | responders at 600 mg/kg (female rats; session 2 (every 15 minutes)): 10% | responders at 600 mg/kg (female rats; session 3 (every 15 minutes)): 10% | responders at 600 mg/kg (female rats; session 4 (every 15 minutes)): 20% | responders at 600 mg/kg (female rats; session 5 (every 15 minutes)): 20% | responders at 600 mg/kg (female rats; [7]): 20%
